This is an account of results in patent publication EP1879602B1, “USE OF CACAO POLYPHENOLS FOR CONTROLLING SKIN PIGMENTATION” (priority 2005, dated 2006).

Each structure is given as a SMILES string.

In the experiment the test system is synthèse de la mélanine. The experiment in a line: Intracellular melanin assay by spectrometry at 475 nm on reconstituted epidermis (Skinetic®) co-cultured with melanocytes. The format is cell-based, humaine. Conditions: positive control, concentration not given. The source says:
L'activité sur la pigmentation (effet dépigmentant et effet pigmentant) a été étudiée à travers • l'évaluation de l'activité de la tyrosinase • l'évaluation de la synthèse de la mélanine (étude qualitative de la mélanine intracellulaire par spectrométrie à 475 nm)
L'étude a été faite sur des épidermes reconstitués (Skinetic®). Des kératinocytes d'origine humaine sont cultivés dans un milieu défini (MCDB 153 modifié) et supplémentés. Les cellules sont cultivées pendant 10 jours à l'interface air/liquide, le milieu de culture étant changé tous les deux jours.
Les épidermes ainsi formés sont mis en co-culture avec des mélanocytes de phototypes II, IV et VI sur des filtres en polycarbonate. L'étude est réalisée entre le 11^ème et le 17^ème jour de la culture.
L'essai est conduit en triplicate après 3 jours de contact.
L'évaluation de la synthèse de la mélanine intracellulaire (étude qualitative) a été effectuée comme indiqué ci-dessus par spectrométrie à 475 nm après digestion des explants de peau humaine puis dissolution dans NaOH 1N et du diméthyl sulfoxyde pendant 30 minutes.

On to `O=c1cc(CO)occ1O` [acide kojique], for which, under “change vs negative control, 4320 min”, the “%” value is recorded as -42%. The “Absorbance (475 nm)” value (3 days contact, triplicate) was 0,107 ± 0,01.
